Laboratory results published in patent US11339130B1 (Blade Therapeutics, Inc., priority 2016, dated 2022).
pIC50: −log10 of the molar value.

How the values were obtained:
Assay type in all cases: biochemical
[1] = target: T1, Human Calpain 2/NS1 (Homo sapiens, UniProt P17655); assay: Calpain inhibition continuous fluorescence (FRET) assay, Human Calpain 2/NS1; settings: Column B; read-out: Human Calpain 2/NS1 IC50
T1 sequence (P17655 1-700): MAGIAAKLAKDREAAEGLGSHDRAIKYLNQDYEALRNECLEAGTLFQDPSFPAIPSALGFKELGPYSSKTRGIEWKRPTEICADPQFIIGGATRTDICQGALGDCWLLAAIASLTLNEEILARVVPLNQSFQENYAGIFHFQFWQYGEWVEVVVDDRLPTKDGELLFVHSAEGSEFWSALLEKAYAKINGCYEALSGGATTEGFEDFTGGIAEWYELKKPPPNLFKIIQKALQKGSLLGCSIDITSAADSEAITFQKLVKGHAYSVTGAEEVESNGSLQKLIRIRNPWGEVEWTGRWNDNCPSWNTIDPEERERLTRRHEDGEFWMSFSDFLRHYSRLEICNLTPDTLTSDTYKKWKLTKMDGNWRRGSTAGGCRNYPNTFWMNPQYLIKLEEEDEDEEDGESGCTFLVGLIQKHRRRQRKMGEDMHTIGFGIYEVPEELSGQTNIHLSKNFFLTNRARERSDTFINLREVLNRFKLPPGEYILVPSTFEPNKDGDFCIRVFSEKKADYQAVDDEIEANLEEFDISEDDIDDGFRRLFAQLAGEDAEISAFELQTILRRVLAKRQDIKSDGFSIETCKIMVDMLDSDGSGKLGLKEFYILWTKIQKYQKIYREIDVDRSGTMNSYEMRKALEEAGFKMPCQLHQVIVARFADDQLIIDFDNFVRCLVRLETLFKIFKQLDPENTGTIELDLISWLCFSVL
T1 sequence (P04632 1-268 partner): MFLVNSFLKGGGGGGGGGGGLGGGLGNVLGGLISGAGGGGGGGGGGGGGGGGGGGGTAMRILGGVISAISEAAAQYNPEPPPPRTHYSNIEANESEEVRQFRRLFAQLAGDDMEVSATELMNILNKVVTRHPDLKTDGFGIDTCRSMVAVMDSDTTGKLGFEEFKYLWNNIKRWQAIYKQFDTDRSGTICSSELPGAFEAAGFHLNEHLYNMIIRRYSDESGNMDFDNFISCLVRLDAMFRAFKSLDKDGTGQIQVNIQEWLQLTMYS
Procedure: (§1) Calpain 1, 2, and 9 activity and inhibition thereof was assessed by means of a continuous fluorescence assay. The SensoLyte 520 Calpain substrate (Anaspec Inc) was optimized for detecting calpain activity. This substrate contains an internally quenched 5-FAM/QXL™ 520 FRET pair. Calpains 1, 2, and 9 cleave the FRET substrate into two separate fragments resulting in an increase of 5-FAM fluorescence that is proportional to calpain activity
(§2) Assays were typically setup in black 384-well plates using automated liquid handling as follows. Calpain assay base buffer typically contains 50 mM Tris, pH 7.5, 100 mM NaCl and 1 mM DTT. Inhibitors were serially diluted in DMSO and used to setup 2× mixtures with calpains in the aforementioned buffer. After incubation at ambient temperature (25C), the reaction was initiated by adding a 2× mix of the fluorescent peptide substrate and CaCl2) (required for in-situ calpain activation) in the same buffer. Reaction progress curve data were typically collected for 10 min using excitation/emission wavelengths of 490 nm/520 nm on SpectraMax i3× or the FLIPR-Tetra plate readers (Molecular Devices Inc). Reaction rates were calculated from progress curve slopes typically over 1-5 min. Dose response curves (rate vs. log inhibitor concentration) were typically fit to a 4-parameter logistic function to extract IC50 values.

[2] = target: T2, Human Calpain 9/NS1 (Homo sapiens, UniProt O14815); assay: Calpain inhibition continuous fluorescence (FRET) assay, Human Calpain 9/NS1; settings: Column C; read-out: Human Calpain 9/NS1 IC50
T2 sequence (O14815 1-690): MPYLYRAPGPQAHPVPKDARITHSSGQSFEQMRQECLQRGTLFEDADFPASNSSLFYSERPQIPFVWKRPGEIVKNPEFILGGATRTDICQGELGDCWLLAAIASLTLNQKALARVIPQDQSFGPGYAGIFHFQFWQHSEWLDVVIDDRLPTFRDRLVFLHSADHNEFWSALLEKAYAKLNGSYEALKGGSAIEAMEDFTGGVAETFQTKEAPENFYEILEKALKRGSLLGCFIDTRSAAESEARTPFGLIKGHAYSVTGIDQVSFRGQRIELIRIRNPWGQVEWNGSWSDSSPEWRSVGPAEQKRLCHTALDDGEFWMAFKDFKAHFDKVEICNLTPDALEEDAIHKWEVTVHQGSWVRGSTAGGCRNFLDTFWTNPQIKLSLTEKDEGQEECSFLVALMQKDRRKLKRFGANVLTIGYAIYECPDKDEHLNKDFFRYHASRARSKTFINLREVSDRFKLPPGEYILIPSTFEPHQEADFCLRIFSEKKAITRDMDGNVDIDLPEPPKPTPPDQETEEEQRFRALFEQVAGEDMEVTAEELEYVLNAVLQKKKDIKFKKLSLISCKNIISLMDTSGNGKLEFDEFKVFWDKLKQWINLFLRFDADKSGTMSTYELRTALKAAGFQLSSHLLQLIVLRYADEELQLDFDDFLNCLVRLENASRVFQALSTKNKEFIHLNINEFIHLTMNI
T2 sequence (P04632 1-268 partner): T1 sequence (P04632 1-268 partner)
Procedure: as §1, §2

[3] = target: T3, Human Calpain 1/NS1 (Homo sapiens, UniProt P07384); assay: Calpain inhibition continuous fluorescence (FRET) assay, Human Calpain 1/NS1; settings: Column A; read-out: Human Calpain 1/NS1 IC50
T3 sequence (P07384 1-714): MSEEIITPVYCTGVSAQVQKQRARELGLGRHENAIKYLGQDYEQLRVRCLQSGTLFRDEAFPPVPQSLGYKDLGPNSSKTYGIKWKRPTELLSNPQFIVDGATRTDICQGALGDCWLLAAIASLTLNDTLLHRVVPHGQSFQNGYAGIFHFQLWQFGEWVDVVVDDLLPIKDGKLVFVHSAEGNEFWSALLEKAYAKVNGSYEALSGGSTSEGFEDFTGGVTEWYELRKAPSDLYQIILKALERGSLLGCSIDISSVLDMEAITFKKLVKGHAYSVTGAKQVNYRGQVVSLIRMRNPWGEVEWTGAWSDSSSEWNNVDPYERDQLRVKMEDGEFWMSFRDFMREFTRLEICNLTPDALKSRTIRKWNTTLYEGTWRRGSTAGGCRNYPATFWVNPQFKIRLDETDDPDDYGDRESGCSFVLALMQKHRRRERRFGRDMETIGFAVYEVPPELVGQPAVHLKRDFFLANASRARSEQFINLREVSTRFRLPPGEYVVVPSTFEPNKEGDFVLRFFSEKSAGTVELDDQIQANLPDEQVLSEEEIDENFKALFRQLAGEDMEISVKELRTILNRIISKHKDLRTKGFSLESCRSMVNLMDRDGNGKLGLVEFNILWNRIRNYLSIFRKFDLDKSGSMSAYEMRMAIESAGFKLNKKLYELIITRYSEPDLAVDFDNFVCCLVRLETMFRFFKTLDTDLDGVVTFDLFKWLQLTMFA
T3 sequence (P04632 1-268 partner): T1 sequence (P04632 1-268 partner)
Procedure: as §1, §2

| pIC50 [1] | pIC50 [2] | pIC50 [3] | SMILES |
| --- | --- | --- | --- |
| 5.00 to 5.52 | 5.00 to 5.52 | < 5.00 | Cc1cc(C(=O)N[C@@H](Cc2ccccc2)C(=O)C(N)=O)n(-c2ncccn2)n1 (single isomer, unassigned) [Compound 36] |
| > 5.52 | > 5.52 | > 5.52 | O=C[C@H](Cc1ccccc1)NC(=O)c1scnc1-n1cc(-c2ccccc2)cn1 [Compound 21, (S)—N-(1-oxo-3-phenylpropan-2-yl)-4-(4-phenyl-1H-pyrazol-1-yl)thiazole-5-carboxamide] |
| > 5.52 | > 5.52 | > 5.52 | O=C[C@H](Cc1ccccc1)NC(=O)c1scnc1-n1ncc2ccccc21 [Compound 22, (S)-4-(1H-indazol-1-yl)-N-(1-oxo-3-phenylpropan-2-yl)thiazole-5-carboxamide] |
| > 5.52 | > 5.52 | > 5.52 | O=C[C@H](Cc1ccccc1)NC(=O)c1cncn1-c1nc2ccccc2s1 [Compound 29, (S)-1-(benzo[d]thiazol-2-yl)-N-(1-oxo-3-phenylpropan-2-yl)-1H-imidazole-5-carboxamide] |
| > 5.52 | > 5.52 | > 5.52 | O=C[C@H](Cc1ccccc1)NC(=O)c1cncn1-c1ccccn1 [Compound 31, (S)—N-(1-oxo-3-phenylpropan-2-yl)-1-(pyridin-2-yl)-1H-imidazole-5-carboxamide] |
| > 5.52 | > 5.52 | > 5.52 | O=C[C@H](Cc1ccccc1)NC(=O)c1cncn1-c1ccn(-c2ccccc2)n1 [Compound 34, (S)—N-(1-oxo-3-phenylpropan-2-yl)-1-(1-phenyl-1H-pyrazol-3-yl)-1H-imidazole-5-carboxamide] |
| > 5.52 | > 5.52 | > 5.52 | Cc1noc(-c2ccccc2)c1C(=O)N[C@@H](CC(C)C)C(=O)C(N)=O [Compound 35, (S)—N-(1-amino-5-methyl-1,2-dioxohexan-3-yl)-3-methyl-5-phenylisoxazole-4-carboxamide] |
| > 5.52 | > 5.52 | > 5.52 | NC(=O)C(=O)[C@H](Cc1ccccc1)NC(=O)c1scnc1-n1cc2ccccc2n1 [Compound 37, (S)—N-(4-amino-3,4-dioxo-1-phenylbutan-2-yl)-4-(2H-indazol-2-yl)thiazole-5-carboxamide] |
| > 5.52 | > 5.52 | > 5.52 | Cc1cc(C(=O)N[C@@H](Cc2ccccc2)C(=O)C(N)=O)n(-c2cccc3ccccc23)n1 [Compound 38, (S)—N-(4-amino-3,4-dioxo-1-phenylbutan-2-yl)-3-methyl-1-(naphthalen-1-yl)-1H-pyrazole-5-carboxamide] |

Further lines, the compound ahead of its results:

| SMILES | pIC50 [1] | pIC50 [2] | pIC50 [3] |
| --- | --- | --- | --- |
| O=C[C@H](Cc1ccccc1)NC(=O)c1cncn1-c1ccccc1 [Compound 1, (S)—N-(1-oxo-3-phenylpropan-2-yl)-1-phenyl-1H-imidazole-5-carboxamide] | > 5.52 | > 5.52 | > 5.52 |
| O=C[C@H](Cc1ccccc1)NC(=O)[C@@H]1CCCN1c1nc2ccccc2s1 [Compound 3, (S)-1-(benzo[D]thiazol-2-yl)-N—((S)-1-oxo-3-phenylpropan-2-yl)pyrrolidine-2-carboxamide] | > 5.52 | > 5.52 | > 5.52 |
| O=C[C@H](Cc1ccccc1)NC(=O)[C@@H]1CCCN1c1nc2ccccc2o1 [Compound 4, (S)-1-(benzo[D]oxazol-2-yl)-N—((S)-1-oxo-3-phenylpropan-2-yl)pyrrolidine-2-carboxamide] | > 5.52 | > 5.52 | > 5.52 |
| Cc1cc(C(=O)N[C@H](C=O)Cc2ccccc2)nn1-c1ccccc1 [Compound 5] | 5.00 to 5.52 | 5.00 to 5.52 | < 5.00 |
| NC(=O)C(=O)[C@H](Cc1ccccc1)NC(=O)c1cncn1-c1ccccc1 [Compound 7, (S)—N-(4-amino-3,4-dioxo-1-phenylbutan-2-yl)-1-phenyl-1H-imidazole-5-carboxamide] | > 5.52 | > 5.52 | > 5.52 |
| Cc1cc(C(=O)N[C@H](C=O)Cc2ccccc2)n(-c2ccccc2)n1 [Compound 8, (S)-3-methyl-N-(1-oxo-3-phenylpropan-2-yl)-1-phenyl-1H-pyrazole-5-Carboxamide] | > 5.52 | > 5.52 | > 5.52 |
| NC(=O)C(=O)[C@H](Cc1ccccc1)NC(=O)c1ccnn1-c1ccccc1 [Compound 10, (S)—N-(4-amino-3,4-dioxo-1-phenylbutan-2-yl)-1-phenyl-1H-pyrazole-5-carboxamide] | > 5.52 | > 5.52 | > 5.52 |
| NC(=O)C(=O)[C@H](Cc1ccccc1)NC(=O)c1csnc1-c1ccccc1 [Compound 11, (S)—N-(4-amino-3,4-dioxo-1-phenylbutan-2-yl)-3-phenylisothiazole-4-carboxamide] | > 5.52 | > 5.52 | > 5.52 |
| NC(=O)C(=O)[C@H](Cc1ccccc1)NC(=O)c1scnc1-c1ccccc1 [Compound 18, (S)—N-(4-amino-3,4-dioxo-1-phenylbutan-2-yl)-4-phenyl thiazole-5-carboxamide] | > 5.52 | > 5.52 | > 5.52 |
| Cc1noc(-c2ccc3c(c2)OCO3)c1C(=O)N[C@@H](Cc1ccccc1)C(=O)C(N)=O [Compound 20, (S)—N-(4-amino-3,4-dioxo-1-phenylbutan-2-yl)-5-(benzo[D][1,3]dioxol-5-yl)-3-methylisoxazole-4-carboxamide] | > 5.52 | > 5.52 | > 5.52 |
